In patent US20230123334A1, “AMINO LIPID COMPOUND, PREPARATION METHOD THEREFOR, AND APPLICATION THEREOF” (SHENZHEN SHENXIN BIOTECHNOLOGY CO., LTD., priority 2020, published 2023):

Columns and labels:
HEK293 cells [1] = assay: Preliminary screening as DNA vectors, GFP transfection of HEK293 cells; type: cell-based; conditions: HEK293 cells; lipid/DOPE liposome with 75 ng plasmid DNA (psin-EGFP-IRES-Puro); number of cells expressing GFP divided by total number of nuclei (Hoechst)
How it was run: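 Lipid + DOPE liposomes (NaOAc, pH 5.6) complexed w/ 75 ng psin-EGFP-IRES-Puro, 30 min RT; added to 3-5×10^4 HEK293/well, 37° C. Hoechst 0.2 μg/mL at 20-24 h, imaged after further 20-24 h. Efficiency = GFP+ cells / total nuclei.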

HEK293 cells [2] = assay: Preliminary screening as mRNA vectors, EGFP mRNA transfection of HEK293 cells; type: cell-based; conditions: HEK293 cells, 96-well plates, EGFP mRNA 50 ng per well; percentage of GFP fluorescent cells relative to total number of cells (Hoechst)
How it was run: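 Each well of HEK293 cells received 50 ng of EGFP mRNA. Efficiency was expressed as percent GFP-expressing cells over Hoechst-defined total cell number.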

| Compound | Absolute DNA transfection efficiency in HEK293 cells (HEK293 cells [1]) [%] | Absolute mRNA transfection efficiency in HEK293 cells (HEK293 cells [2]) [%] |
| --- | --- | --- |
| CCCCCCCCCCCCCNc1nc(NCCCCCCCCCCCC)nc(NCCN2CCOCC2)n1 [Compound N12N13D2] | 0.1 | 0.0 |
| CCCCCCCCCCCCCNc1nc(NCCCCCCCCCCCC)nc(NCCN2CCCC2)n1 [Compound N12N13D3] | 1.7 | 3.1 |
| CCCCCCCCCCCCCNc1nc(NCCCCCCCCCCCC)nc(NCCN2CCCCC2)n1 [Compound N12N13D4] | 0.0 | 0.0 |
| CCCCCCCCCCCCCNc1nc(NCCCCCCCCCCCC)nc(NCCN2CCN(C)CC2)n1 [Compound N12N13D5] | 0.3 | 0.0 |
| CCCCCCCCCCCCCNc1nc(NCCCCCCCCCCCC)nc(NCCCN(C)C)n1 [Compound N12N13D6] | 0.5 | 1.0 |
| CCCCCCCCCCCCCNc1nc(NCCCCCCCCCCCC)nc(NCCN(CC)CC)n1 [Compound N12N13D7] | 0.2 | 0.3 |
| CCCCCCCCCCCCCNc1nc(NCCCCCCCCCCCC)nc(NCCCN2CCOCC2)n1 [Compound N12N13D8] | 0.3 | 0.0 |
| CCCCCCCCCCCCCNc1nc(NCCCCCCCCCCCC)nc(NCCCN2CCN(C)CC2)n1 [Compound N12N13D9] | 0.3 | 1.8 |
| CCCCCCCCCCCCCNc1nc(NCCCCCCCCCCCC)nc(NCC2CCN(C)CC2)n1 [Compound N12N13D10] | 0.2 | 0.2 |
| CCCCCCCCCCCCCCCNc1nc(NCCCCCCCCCCCC)nc(NCCN(C)C)n1 [Compound N12N15D1] | 1.5 | 1.0 |
| CCCCCCCCCCCCCCCNc1nc(NCCCCCCCCCCCC)nc(NCCN2CCOCC2)n1 [Compound N12N15D2] | 0.3 | 0.4 |
| CCCCCCCCCCCCCCCNc1nc(NCCCCCCCCCCCC)nc(NCCN2CCCC2)n1 [Compound N12N15D3] | 1.1 | 6.5 |
| CCCCCCCCCCCCCCCNc1nc(NCCCCCCCCCCCC)nc(NCCN2CCCCC2)n1 [Compound N12N15D4] | 1.4 | 1.3 |
| CCCCCCCCCCCCCCCNc1nc(NCCCCCCCCCCCC)nc(NCCN2CCN(C)CC2)n1 [Compound N12N15D5] | 0.4 | 3.1 |
| CCCCCCCCCCCCCCCNc1nc(NCCCCCCCCCCCC)nc(NCCCN(C)C)n1 [Compound N12N15D6] | 0.9 | 2.3 |
| CCCCCCCCCCCCCCCNc1nc(NCCCCCCCCCCCC)nc(NCCN(CC)CC)n1 [Compound N12N15D7] | 0.8 | 1.4 |

| Compound | Absolute DNA transfection efficiency in HEK293 cells (HEK293 cells [1]) [%] | Absolute mRNA transfection efficiency in HEK293 cells (HEK293 cells [2]) [%] |
| --- | --- | --- |
| CCCCCCCCCCCCCCCNc1nc(NCCCCCCCCCCCC)nc(NCCCN2CCOCC2)n1 [Compound N12N15D8] | 1.4 | 0.9 |
| CCCCCCCCCCCCCCCNc1nc(NCCCCCCCCCCCC)nc(NCCCN2CCN(C)CC2)n1 [Compound N12N15D9] | 1.5 | 0.9 |
| CCCCCCCCCCCCCCCNc1nc(NCCCCCCCCCCCC)nc(NCC2CCN(C)CC2)n1 [Compound N12N15D10] | 0.7 | 1.2 |
| CCCCCCCCCCCCCCCCNc1nc(NCCCCCCCCCCCC)nc(NCCN(C)C)n1 [Compound N12N16D1] | 2.6 | 4.4 |
| CCCCCCCCCCCCCCCCNc1nc(NCCCCCCCCCCCC)nc(NCCN2CCOCC2)n1 [Compound N12N16D2] | 0.9 | 0.0 |
| CCCCCCCCCCCCCCCCNc1nc(NCCCCCCCCCCCC)nc(NCCN2CCCC2)n1 [Compound N12N16D3] | 1.2 | 3.3 |
| CCCCCCCCCCCCCCCCNc1nc(NCCCCCCCCCCCC)nc(NCCN2CCCCC2)n1 [Compound N12N16D4] | 1.2 | 0.7 |
| CCCCCCCCCCCCCCCCNc1nc(NCCCCCCCCCCCC)nc(NCCN2CCN(C)CC2)n1 [Compound N12N16D5] | 0.1 | 1.4 |
| CCCCCCCCCCCCCCCCNc1nc(NCCCCCCCCCCCC)nc(NCCCN(C)C)n1 [Compound N12N16D6] | 1.9 | 1.9 |
| CCCCCCCCCCCCCCCCNc1nc(NCCCCCCCCCCCC)nc(NCCN(CC)CC)n1 [Compound N12N16D7] | 0.4 | 0.3 |
| CCCCCCCCCCCCCCCCNc1nc(NCCCCCCCCCCCC)nc(NCCCN2CCOCC2)n1 [Compound N12N16D8] | 0.7 | 0.9 |
| CCCCCCCCCCCCCCCCNc1nc(NCCCCCCCCCCCC)nc(NCCCN2CCN(C)CC2)n1 [Compound N12N16D9] | 0.9 | 0.7 |
| CCCCCCCCCCCCCCCCNc1nc(NCCCCCCCCCCCC)nc(NCC2CCN(C)CC2)n1 [Compound N12N16D10] | 0.0 | 0.6 |
| CCCCCCCCCCCCCCCCCCNc1nc(NCCCCCCCCCCCC)nc(NCCN(C)C)n1 [Compound N12N18D1] | 1.4 | 9.4 |
| CCCCCCCCCCCCCCCCCCNc1nc(NCCCCCCCCCCCC)nc(NCCN2CCOCC2)n1 [Compound N12N18D2] | 0.6 | 0.9 |
| CCCCCCCCCCCCCCCCCCNc1nc(NCCCCCCCCCCCC)nc(NCCN2CCCC2)n1 [Compound N12N18D3] | 3.5 | 13.4 |
